Data: patent US6300499A, “α1-adrenergic receptor antagonists” (Societe de Conseils de Recherches et d'Applications …, priority 1998, dated 2001)
pKi: −log10 of the molar value.

Molecular target: α1-adrenergic receptor
Assay: Test of the bond to the α1-adrenergic receptor (inhibition of [3H]prazosin bond to rat cerebral cortex)
Format: binding, rat (male Sprague Dawley)
Conditions: [3H]prazosin 0.2 nM, rat cerebral cortex membranes, 30 min, 25° C., pH 7.7
Protocol: The cerebral cortices of male Sprague Dawley rats are homogenized at 4° C. in Tris-HCl 50 mM pH=7.7 and centrifuged at 50,000 g for 30 minutes at 4° C. The pellets are again suspended in the same buffer and centrifuged again at 50,000 g for 30 minutes at 4° C.
The filters are rinsed three times with the same buffer at 0-4° C. and their radioactivity is tested by liquid scintillation spectrometry.
The specific bonds are obtained by subtracting the non-specific bonds (determined in the presence of 10 μM of phentolamine (Sigma Chemical Co. St. Louis Mo.)) from the total bonds. The data relative to the bonds is analyzed by computer assisted iterative non-linear regression analysis, using the Ligand program (Munson, P. J., Rodbard, D. Anal. Biochem. 107:220 (1980)).

| Compound | pKi |
| --- | --- |
| Cc1ccc(C)c(N2CCN(CCCNC(=O)C(N)c3ccccc3)CC2)c1 (racemic) [Compound 32, (±)-a-amino-N-[3-{4-(2,5-dimethylphenyl)-1-piperazinyl}-propyl]-benzeneacetamide] | 7.29 |
| CCCCC(O)(C(=O)NCCCN1CCN(c2cc(C)ccc2C)CC1)c1ccccc1 (racemic) [Compound 28, (±)-N-[3-{4-(2,5-dimethylphenyl)-1-piperazinyl}-propyl]-2-hydroxy-2-phenyl-hexanamide] | 7.44 |
| Cc1ccc(N2CCN(CCCNC(=O)C(O)(c3ccccc3)c3ccccc3)CC2)cc1 [Compound 3, α-hydroxy-N-[3-{4-(4-methylphenyl)-1-piperazinyl}-propyl]-α-phenyl-benzeneacetamide] | 7.22 |
| CCSC(C(=O)NCCCN1CCN(c2cc(C)ccc2C)CC1)(c1ccccc1)c1ccccc1 [Compound 24, N-[3-{4-(2,5dimethylphenyl)-1-piperazinyl}-propyl]-α-ethylthio-α-phenyl-benzeneacetamide] | 7.16 |
| COc1ccccc1N1CCN(CCCNC(=O)C(O)c2ccccc2)CC1 (racemic) [Compound 19, (±)-α-hydroxy-N-[3-{4-(2-methoxyphenyl)-1-piperazinyl}-propyl]-benzeneacetamide] | 7.22 |
| COc1ccc(C(C)(O)C(=O)NCCCN2CCN(c3cc(C)ccc3C)CC2)cc1 (racemic) [Compound 40, (±)-N-[3-{4-(2,5-dimethylphenyl)-1-piperazinyl}-propyl]-α-hydroxy-α-methyl-4-methoxy-benzeneacetamide] | 7.42 |
| Cc1ccc(C)c(N2CCN(CCCNC(=O)C(C)(O)c3ccc(Cl)cc3)CC2)c1 (racemic) [Compound 30, (±)-4-chloro-N-[3-{4-(2,5-dimethylphenyl)-1-piperazinyl}-propyl]-α-hydroxy-α-methyl-benzeneacetamide] | 7.36 |
| Cc1cccc(C)c1N1CCN(CCCNC(=O)C(O)(c2ccccc2)c2ccccc2)CC1 [Compound 6, N-[3-{4-(2,6-dimethylphenyl)-1-piperazinyl}-propyl]-a-hydroxy-a-phenyl-benzeneacetamide] | 6.32 |
| CCCc1ccccc1N1CCN(CCCNC(=O)C(O)(c2ccccc2)c2ccccc2)CC1 (racemic) [Compound 56, (±)-N-[3-{4-(2-(propyl)-phenyl)-1-piperazinyl}-propyl]-α-hydroxy-α-phenyl-benzeneacetamide] | 7.60 |
| O=C(NCCCN1CCN(c2ccccc2C(O)C2CC2)CC1)C(c1ccccc1)c1ccccc1 (racemic) [Compound 55, (±)-N-[3-{4-(2-(cyclopropylhydroxymethyl)-phenyl)-1-piperazinyl}-propyl]-α-phenyl-benzeneacetamide] | 6.52 |
| Cc1cccc(N2CCN(CCCNC(=O)C(O)(c3ccccc3)c3ccccc3)CC2)c1 [Compound 1, α-hydroxy-N-[3-{4-(3-methylphenyl)-1-piperazinyl}-propyl]-α-phenylbenzeneacetamide] | 7.29 |
| Cc1cccc(N2CCN(CCCNC(=O)C(O)(c3ccccc3)c3ccccc3)CC2)c1C [Compound 4, N-[3-{4-(2,3-dimethylphenyl)-1-piperazinyl}-propyl]-α-hydroxy-α-phenyl-benzeneacetamide] | 7.18 |
| CCC(O)c1ccccc1N1CCN(CCCNC(=O)C(c2ccccc2)c2ccccc2)CC1 (racemic) [Compound 36, (±)-N-[3-{4-(2-(1-hydroxypropyl)-phenyl)-1-piperazinyl}-propyl]-α-phenyl-benzeneacetamide] | 6.77 |
| Cc1ccc(C)c(N2CCN(CCCNC(=O)C(C)(O)c3ccccc3Cl)CC2)c1 (racemic) [Compound 29, (±)-2-chloro-N-[3-{4-(2,5-dimethylphenyl)-1-piperazinyl}-propyl]-α-hydroxy-α-methyl-benzeneacetamide] | 7.17 |
| CCC(CC)(C(=O)NCCCN1CCN(c2cc(C)ccc2C)CC1)c1ccccc1 [Compound 26, N-[3-{4-(2,5dimethylphenyl)-1-piperazinyl}-propyl]-2-ethyl-2-phenyl-butyramide] | 7.13 |
| Cc1ccc(C)c(N2CCN(CCCNC(=O)C(C)(c3ccccc3)c3ccccc3)CC2)c1 [Compound 23, N-[3-{4-(2,5-dimethylphenyl)-1-piperazinyl}-propyl]-α-methyl-α-phenyl-benzeneacetamide] | 7.01 |
| Cc1ccc(C)c(N2CCN(CCCNC(=O)C(C)(C)O)CC2)c1 (racemic) [Compound 54, (±)-N-[3-{4-(2,5-dimethylphenyl)-1-piperazinyl}-propyl]-2-hydroxy-2-methyl-propionamide] | 6.55 |
| COc1ccccc1N1CCN(CCCNC(=O)C(c2ccccc2)C2CCCCC2)CC1 (racemic) [Compound 18, (±)-α-cyclohexyl-N-[3-{4-(2-methoxyphenyl)-1-piperazinyl}-propyl]-benzeneacetamide] | 7.26 |
| Cc1ccc(C)c(N2CCN(CCCNC(=O)C(C)(OCc3ccccc3)c3ccccc3)CC2)c1 (racemic) [Compound 52, (±)-N-[3-{4-(2,5-dimethylphenyl)-1-piperazinyl}-propyl]-α-benzyloxy-α-methyl-benzeneacetamide] | 7.29 |
| Cc1ccc(C)c(N2CCN(CCCNC(=O)C(C)(O)c3cccc(Cl)c3)CC2)c1 (racemic) [Compound 31, (±)-3-chloro-N-[3-{4-(2,5-dimethylphenyl)-1-piperazinyl}-propyl]-α-hydroxy-α-methyl-benzeneacetamide] | 7.37 |
| COc1ccc(CC(C)(O)C(=O)NCCCN2CCN(c3cc(C)ccc3C)CC2)cc1 (racemic) [Compound 34, (±)-N-[3-{4-(2,5-dimethylphenyl)-1-piperazinyl}-propyl]-2-hydroxy-2-methyl-4-methoxy-benzenepropionamide] | 7.35 |
| Cc1ccc(C)c(N2CCN(CCCNC(=O)C(NC(=O)Cc3ccccc3)c3ccccc3)CC2)c1 (racemic) [Compound 49, (±)-N-[3-{4-(2,5-dimethylphenyl)-1-piperazinyl}-propyl]-α-benzylcarbonylamino-benzeneacetamide] | 7.30 |
| Cc1ccc(C)c(N2CCN(CCCNC(=O)C(c3ccc(Cl)cc3)c3ccc(Cl)cc3)CC2)c1 [Compound 21, 4-chloro-a-(4-chlorophenyl)-N-[3-{4-(2,5-dimethylphenyl)-1-piperazinyl}-propyl]-benzeneacetamide] | 7.19 |
| Cc1ccc(C(C)(O)C(=O)NCCCN2CCN(c3cc(C)ccc3C)CC2)cc1 (racemic) [Compound 41, (±)-N-[3-{4-(2,5-dimethylphenyl)-1-piperazinyl}-propyl]-α-hydroxy-α-methyl-4-methyl-benzeneacetamide] | 7.57 |
| Cc1ccc(C)c(N2CCN(CCCNC(=O)C(C)(O)c3cccc(-c4ccccc4)c3)CC2)c1 (racemic) [Compound 44, (±)-N-[3-{4-(2,5-dimethylphenyl)-1-piperazinyl}-propyl]-α-hydroxy-α-methyl-1,1'-biphenyl-3-acetamide] | 7.14 |
| Cc1ccc(C)c(N2CCN(CCCNC(=O)C(C)(O)c3ccc4ccccc4c3)CC2)c1 (racemic) [Compound 43, (±)-N-[3-{4-(2,5-dimethylphenyl)-1-piperazinyl}-propyl]-α-hydroxy-α-methyl-2-naphthaleneacetamide] | 7.54 |
| Cc1ccc(N2CCN(CCCNC(=O)C(O)(c3ccccc3)c3ccccc3)CC2)c(C)c1 [Compound 5, N-[3-{4-(2,4-dimethylphenyl)-1-piperazinyl}-propyl]-α-hydroxy-α-phenyl-benzeneacetamide] | 7.22 |
| Cc1ccc(C)c(N2CCN(CCCNC(=O)C(NS(C)(=O)=O)c3ccccc3)CC2)c1 (racemic) [Compound 33, (±)-N-[3-{4-(2,5-dimethylphenyl)-1-piperazinyl}-propyl]-α-(methylsulphonylamino)-benzeneacetamide] | 7.40 |
| COC(C)(C(=O)NCCCN1CCN(c2cc(C)ccc2C)CC1)c1ccccc1 (racemic) [Compound 51, (±)-N-[3-{4-(2,5-dimethylphenyl)-1-piperazinyl}-propyl]-α-methoxy-α-methyl-benzeneacetamide] | 6.96 |
| Cc1ccc(C)c(N2CCN(CCCN(C)C(=O)C(c3ccccc3)c3ccccc3)CC2)c1 [Compound 35, N-[3-{4-(2,5-dimethylphenyl)-1piperazinyl}-propyl]-N-methyl-α-phenyl-benzeneacetamide] | 7.05 |
